# Source: article PMC8160025 (Nanomedicine : nanotechnology, biology, and medicine, 2020)
# Experiments:
# [1] = Spatial distribution of vismodegib in brain sections by IR-MALDESI; format: in vivo, mouse; conditions: 4 h after IP injection
# [2] = tested on: serum protein; assay: Unbound vismodegib over time after incubation in FBS; format: in vitro ADME, bovine; conditions: 30 min incubation
# [3] = Bone toxicity: femur length by CT scan and direct measurement; format: in vivo, mouse; conditions: 4 daily doses of 100 mg/kg IP from P10
# [4] = tested on: phosphorylated RB (pRB); assay: Pharmacodynamics: pRB+ / PCNA proliferation markers in G-Smo medulloblastoma; format: in vivo, mouse; conditions: for suppression of pRB+ cell fraction in tumors: 24 h
# [5] = tested on: SHH-driven medulloblastoma; assay: Survival; format: in vivo, mouse; conditions: 100 mg/kg IP or orally, or 50 mg/kg IP
# [6] = 4 h
# [7] = cited from earlier work
# [8] = children; cited from earlier work
# [9] = Pharmacokinetics by LC-MS in medulloblastoma-bearing G-Smo mice; conditions: mouse, in vivo, ip, 100 mg/kg
# [10] = tested on: albumin; conditions: 4 h post administration, SPE
smiles,measurement,setting,value
CS(=O)(=O)c1ccc(C(=O)Nc2ccc(Cl)c(-c3ccccn3)c2)c(Cl)c1 [vismodegib],distribution of vismodegib in tumor and forebrain,[1],evenly distributed
same,unbound fraction of total vismodegib,[2],marginal
same,femur length,[3],reduced femur length
same,suppression of pRB,[4]; 50 mg/kg IP,sufficient to suppress pRB
same,suppression of pRB+ cell fraction in tumors,[4]; single 100 mg/kg IP,similarly suppressed pRB
same,suppression of pRB+ cell fraction in tumors,[4]; single 100 mg/kg oral,less suppression
same,event free survival (EFS),[5],failed to extend the EFS
same,vismodegib level in serum,"[6]; 100 mg/kg, systemic (IP)",comparable levels to POx-vismo
same,"vismodegib concentrations in blood, tumor and forebrain compared to POx-vismo",[6]; oral gavage,significantly lower
same,oral bioavailability,[7],31.8%
same,drug levels in the CSF as % of the concentration of unbound vismodegib,[8],26-78%
same,drug levels in the CSF as % of total plasma vismodegib,[8],0.26%
same,Kp,[9],0.439
same,drug albumin-bound in serum,[10],90%
same,vismodegib unbound in serum,[10],9%
